Experimental data as given in ChEMBL document CHEMBL4270599, “Synthesis of a 3'-C-ethynyl-β-d-ribofuranose purine nucleoside library: Discovery of C7-deazapurine analogs as potent antiproliferative nucleosides” (Eur J Med Chem, 2018).

Experiments:
Format in all cases: functional
[1] = test system: OVCAR-8; experiment: Cytotoxicity against human OVCAR8 cells after 48 hrs by SRB assay; conditions: OVCAR-8, 48 h
[2] = test system: SN12C; experiment: Growth inhibition of human SN12C cells assessed as cell growth at 10^-8 M incubated for 48 hrs by sulforhodamine B assay relative to control; conditions: read-out: Activity
[3] = test system: OVCAR-8; experiment: Growth inhibition of human OVCAR8 cells assessed as cell growth at 10^-6 M incubated for 48 hrs by sulforhodamine B assay relative to control; conditions: OVCAR-8, 48 h, read-out: Activity
[4] = test system: EKVX; experiment: Growth inhibition of human EKVX cells assessed as cell growth at 10^-5 M incubated for 48 hrs by sulforhodamine B assay relative to control; conditions: read-out: Activity
[5] = test system: HOP-62; experiment: Growth inhibition of human HOP62 cells assessed as cell growth at 10^-4 M incubated for 48 hrs by sulforhodamine B assay relative to control; conditions: HOP-62, 48 h, read-out: Activity
[6] = test system: M14; experiment: Growth inhibition of human M14 cells assessed as cell growth at 10^-4 M incubated for 48 hrs by sulforhodamine B assay relative to control; conditions: M14, 48 h, read-out: Activity
[7] = test system: SF-295; experiment: Growth inhibition of human SF295 cells assessed as cell growth at 10^-4 M incubated for 48 hrs by sulforhodamine B assay relative to control; conditions: SF-295, 48 h, read-out: Activity
[8] = test system: IGROV-1; experiment: Growth inhibition of human IGROV1 cells assessed as cell growth at 10^-5 M incubated for 48 hrs by sulforhodamine B assay relative to control; conditions: IGROV-1, 48 h, read-out: Activity
[9] = test system: T47D; experiment: Growth inhibition of human T47D cells assessed as cell growth at 10^-4 M incubated for 48 hrs by sulforhodamine B assay relative to control; conditions: read-out: Activity
[10] = test system: Malme-3M; experiment: Growth inhibition of human MALME-3M cells assessed as cell growth at 10^-4 M incubated for 48 hrs by sulforhodamine B assay relative to control; conditions: read-out: Activity
[11] = test system: SF-539; experiment: Growth inhibition of human SF539 cells assessed as cell growth at 10^-5 M incubated for 48 hrs by sulforhodamine B assay relative to control; conditions: SF-539, 48 h, read-out: Activity
[12] = test system: LOX IMVI; experiment: Growth inhibition of human LOXIMVI cells assessed as cell growth at 10^-4 M incubated for 48 hrs by sulforhodamine B assay relative to control; conditions: read-out: Activity
[13] = test system: SF-295; experiment: Growth inhibition of human SF295 cells assessed as cell growth at 10^-5 M incubated for 48 hrs by sulforhodamine B assay relative to control; conditions: SF-295, 48 h, read-out: Activity
[14] = test system: IGROV-1; experiment: Growth inhibition of human IGROV1 cells assessed as cell growth at 10^-6 M incubated for 48 hrs by sulforhodamine B assay relative to control; conditions: IGROV-1, 48 h, read-out: Activity
[15] = test system: MDA-MB-468; experiment: Growth inhibition of human MDA-MB-468 cells assessed as cell growth at 10^-4 M incubated for 48 hrs by sulforhodamine B assay relative to control; conditions: MDA-MB-468, 48 h, read-out: Activity
[16] = test system: T47D; experiment: Growth inhibition of human T47D cells assessed as cell growth at 10^-6 M incubated for 48 hrs by sulforhodamine B assay relative to control; conditions: read-out: Activity
[17] = test system: HOP-92; experiment: Growth inhibition of human HOP92 cells assessed as cell growth at 10^-4 M incubated for 48 hrs by sulforhodamine B assay relative to control; conditions: HOP-92, 48 h, read-out: Activity
[18] = test system: UO-31; experiment: Growth inhibition of human UO31 cells assessed as cell growth at 10^-4 M incubated for 48 hrs by sulforhodamine B assay relative to control; conditions: UO-31, 48 h, read-out: Activity
[19] = test system: UACC-257; experiment: Growth inhibition of human UACC257 cells assessed as cell growth at 10^-4 M incubated for 48 hrs by sulforhodamine B assay relative to control; conditions: UACC-257, 48 h, read-out: Activity
[20] = test system: RXF 393; experiment: Growth inhibition of human RXF393 cells assessed as cell growth at 10^-4 M incubated for 48 hrs by sulforhodamine B assay relative to control; conditions: RXF 393, 48 h, read-out: Activity
[21] = test system: SK-OV-3; experiment: Growth inhibition of human SKOV3 cells assessed as cell growth at 10^-6 M incubated for 48 hrs by sulforhodamine B assay relative to control; conditions: SK-OV-3, 48 h, read-out: Activity
[22] = test system: UACC-62; experiment: Growth inhibition of human UACC62 cells assessed as cell growth at 10^-4 M incubated for 48 hrs by sulforhodamine B assay relative to control; conditions: UACC-62, 48 h, read-out: Activity
[23] = test system: LOX IMVI; experiment: Growth inhibition of human LOXIMVI cells assessed as cell growth at 10^-6 M incubated for 48 hrs by sulforhodamine B assay relative to control; conditions: read-out: Activity
[24] = test system: NCI-H522; experiment: Growth inhibition of human NCI-H522 cells assessed as cell growth at 10^-6 M incubated for 48 hrs by sulforhodamine B assay relative to control; conditions: NCI-H522, 48 h, read-out: Activity
[25] = test system: COLO 205; experiment: Growth inhibition of human COLO205 cells assessed as cell growth at 10^-6 M incubated for 48 hrs by sulforhodamine B assay relative to control; conditions: COLO 205, 48 h, read-out: Activity
[26] = test system: Hs-578T; experiment: Growth inhibition of human Hs 578T cells assessed as cell growth at 10^-4 M incubated for 48 hrs by sulforhodamine B assay relative to control; conditions: read-out: Activity
[27] = test system: SNB-19; experiment: Growth inhibition of human SNB19 cells assessed as cell growth at 10^-4 M incubated for 48 hrs by sulforhodamine B assay relative to control; conditions: SNB-19, 48 h, read-out: Activity
[28] = test system: MDA-MB-468; experiment: Growth inhibition of human MDA-MB-468 cells assessed as cell growth at 10^-5 M incubated for 48 hrs by sulforhodamine B assay relative to control; conditions: MDA-MB-468, 48 h, read-out: Activity
[29] = test system: A498; experiment: Growth inhibition of human A498 cells assessed as cell growth at 10^-4 M incubated for 48 hrs by sulforhodamine B assay relative to control; conditions: A498, 48 h, read-out: Activity
[30] = test system: BT-549; experiment: Growth inhibition of human BT549 cells assessed as cell growth at 10^-4 M incubated for 48 hrs by sulforhodamine B assay relative to control; conditions: BT-549, 48 h, read-out: Activity
[31] = test system: A549; experiment: Growth inhibition of human A549/ATCC cells assessed as cell growth at 10^-5 M incubated for 48 hrs by sulforhodamine B assay relative to control; conditions: A549, 48 h, read-out: Activity
[32] = test system: SNB-75; experiment: Growth inhibition of human SNB75 cells assessed as cell growth at 10^-4 M incubated for 48 hrs by sulforhodamine B assay relative to control; conditions: SNB-75, 48 h, read-out: Activity
[33] = test system: SK-MEL-5; experiment: Growth inhibition of human SK-MEL-5 cells assessed as cell growth at 10^-5 M incubated for 48 hrs by sulforhodamine B assay relative to control; conditions: SK-MEL-5, 48 h, read-out: Activity
[34] = test system: HT-29; experiment: Growth inhibition of human HT-29 cells assessed as cell growth at 10^-5 M incubated for 48 hrs by sulforhodamine B assay relative to control; conditions: HT-29, 48 h, read-out: Activity
[35] = read-out: pLC50 (the source's name) (converted)
[36] = read-out: LC50 (the source's name)

In the case of `C#C[C@@]1(O)[C@@H](CO)O[C@@H](n2cc(I)c3c(N)ncnc32)[C@@H]1O`, the GI50 ([1]; read-out: GI50) is reported as 42.3 to 49 nM, the TGI ([1]; read-out: TGI) is reported as 1460 to 100000 nM and the CC50 [1, 35] is reported as > 100000 nM. The growth at 0.01 µM [2] was 85 to 90% and the growth at 1 µM [3] was 3 to 5%.
For `C#C[C@@]1(O)[C@@H](CO)O[C@@H](n2cc(Cl)c3c(N)ncnc32)[C@@H]1O`, the GI50 ([1]; read-out: GI50) was 10.2 to 33.6 nM, the CC50 [1, 36] was > 100000 nM and the TGI ([1]; read-out: TGI) was 730 to 1480 nM. For the same compound, the growth at 0.01 µM [2] was 85 to 90%.
Work on `C#C[C@@]1(O)[C@@H](CO)O[C@@H](n2ccc3c(N)ncnc32)[C@@H]1O` yielded a growth at 10 µM [4] of -24%, a growth at 100 µM [5] of -10% and a growth at 100 µM [6] of -88%. It also gave a growth at 100 µM [7] of -44%, a growth at 10 µM [8] of -19% and a growth at 100 µM [9] of -71%. It also gave a growth at 100 µM [10] of -76%, a growth at 10 µM [11] of -48% and a growth at 100 µM [12] of -92%. The growth at 10 µM [13] was -28%, the growth at 1 µM [14] was 63% and the growth at 100 µM [15] was -62%. The growth at 1 µM [16] was 30%, the growth at 100 µM [17] was -87% and the growth at 100 µM [18] was -37%. The growth at 100 µM [19] was -62%, the growth at 100 µM [20] was -92% and the growth at 1 µM [21] was 52%. The growth at 100 µM [22] was -65%, the growth at 1 µM [23] was 40% and the TGI ([1]; read-out: TGI) was 4110 nM. For the same compound, the GI50 ([1]; read-out: pGI50 (converted)) was 1020 nM, the CC50 [1, 35] was 34700 nM and the TGI ([1]; read-out: pTGI (converted)) was 4070 nM. The growth at 1 µM [24] was 29%, the growth at 1 µM [25] was 40% and the growth at 100 µM [26] was 2%. It also gave a growth at 100 µM [27] of -32%, a growth at 10 µM [28] of -58% and a growth at 0.01 µM [2] of 94%. For the same compound, the growth at 100 µM [29] was -47%, the growth at 1 µM [3] was 51% and the growth at 100 µM [30] was -95%. It also gave a growth at 10 µM [31] of 4%, a growth at 100 µM [32] of -42% and a growth at 10 µM [33] of -95%.
With `C#C[C@@]1(O)[C@@H](CO)O[C@@H](n2cc(Br)c3c(N)ncnc32)[C@@H]1O` the GI50 ([1]; read-out: GI50) was 13.5 to 62.5 nM, the CC50 [1, 36] was > 100000 nM and the TGI ([1]; read-out: TGI) was 1120 nM. The TGI ([1]; read-out: pTGI (converted)) was 1120 nM, the growth at 0.01 µM [2] was 76 to 96% and the growth at 10 µM [34] was 1 to 3%. For the same compound, the growth at 1 µM [3] was 1 to 4%.
Compound `C#C[C@@]1(O)[C@@H](CO)O[C@@H](n2cc(F)c3c(N)ncnc32)[C@@H]1O` has a growth at 10 µM [4] of 1%, a growth at 100 µM [5] of -15% and a growth at 100 µM [6] of -47%. It also gave a growth at 100 µM [7] of -74%, a growth at 10 µM [8] of -33% and a growth at 100 µM [9] of -77%. For the same compound, the growth at 100 µM [10] was -47%, the growth at 10 µM [11] was -23% and the growth at 100 µM [12] was -90%. It also gave a growth at 10 µM [13] of -69%, a growth at 1 µM [14] of 6% and a growth at 100 µM [15] of -68%. For the same compound, the growth at 1 µM [16] was -10%, the growth at 100 µM [17] was -47% and the growth at 100 µM [18] was -30%. The growth at 100 µM [19] was -30%, the growth at 100 µM [20] was -49% and the growth at 1 µM [21] was 12%. For the same compound, the growth at 100 µM [22] was -78%, the growth at 1 µM [23] was 4% and the TGI ([1]; read-out: TGI) was 3690 nM. The GI50 ([1]; read-out: pGI50 (converted)) was 257 nM, the CC50 [1, 35] was > 100000 nM and the TGI ([1]; read-out: pTGI (converted)) was 3720 nM. It also gave a growth at 1 µM [24] of -2%, a growth at 1 µM [25] of 7% and a growth at 100 µM [26] of 8%. For the same compound, the growth at 100 µM [27] was -45%, the growth at 10 µM [28] was -57% and the growth at 0.01 µM [2] was 94%. The growth at 100 µM [29] was -75%, the growth at 10 µM [34] was 2% and the growth at 1 µM [3] was 15%. It also gave a growth at 100 µM [30] of -42%, a growth at 10 µM [31] of -26% and a growth at 100 µM [32] of -86%. For the same compound, the growth at 10 µM [33] was -89%.
